Experimental data as given in ChEMBL document CHEMBL1152706, “Stieglitz rearrangement of N,N-dichloro-beta,beta-disubstituted taurines under mild aqueous conditions” (Bioorg Med Chem Lett, 2009).

Experiments:
Format in all cases: physicochemical
Conditions in all cases: buffer
[1] = Chemical stability assessed as half life at pH 4 at 40 degC
[2] = Chemical stability assessed as half life at pH 7 at 40 degC
[3] = Chemical stability assessed as half life at pH 4 at 25 degC

Row | Compound | half-life [1] | half-life [3] | other results
1 | O=S(=O)([O-])CCCCCN(Cl)Cl.[Na+] | 120 h | – | half-life [2]: 24 h
2 | CC(C)(CS(=O)(=O)[O-])N(Cl)Cl.[Na+] | – | – | t1/2 [1]: > 2 yr
3 | O=S(=O)([O-])CCCCN(Cl)Cl.[Na+] | – | 6 h | –
4 | CCC(CC)(CS(=O)(=O)[O-])N(Cl)Cl.[Na+] | 24 h | – | half-life [2]: 12 h
5 | CCCC(CCC)(CS(=O)(=O)[O-])N(Cl)Cl.[Na+] | 12 h | – | half-life [2]: 48 h
6 | CC(C)C(CS(=O)(=O)[O-])(C(C)C)N(Cl)Cl.[Na+] | – | < 0.167 h | –
7 | O=S(=O)([O-])CCCCCCN(Cl)Cl.[Na+] | 168 h | – | –
8 | O=S(=O)([O-])CCCCCCCN(Cl)Cl.[Na+] | 48 h | – | –
9 | COCC(C)(CS(=O)(=O)[O-])N(Cl)Cl.[Na+] (centres undefined) | – | 36 h | –
10 | CC1(C)CC(C)(C)CC(CS(=O)(=O)[O-])(N(Cl)Cl)C1.[Na+] | 24 h | – | –
11 | O=S(=O)([O-])CCOCCN(Cl)Cl.[Na+] | – | < 24 h | –
